In US20060216749A1, “Chimeric gaba receptor” (priority 2003, published 2006):

Legend:
[1] = molecular target: hGABABR1a/R2 heterodimeric GABAB receptor (CHO membranes) (Homo sapiens, UniProt O75899+Q9UBS5); test: biochemical
Experimental: (§1) Butyrate-stimulated (5 mM final) cells were scraped, after a short rinse with PBS, in 50 mM TrisHCl pH7.4 and centrifuged at 23500 g for 10 min. at 4° C. The pellet was homogenised in 5 mM TrisHCI pH 7.4 by Ultra-Turrax (24000 rpm) followed by centrifugation at 30000 g for 20 min. at 4° C. The resulting pellet was resuspended in 50 mM TrisHCl pH 7.4 and rehomogenised. Protein concentration was determined using the Bradford method.
An agonist filter binding assay has been developed in 96-well GF/B filterplate.

[2] = molecular target: hGABABR1a/GABABR2 receptor (CHO membranes) (Homo sapiens, UniProt O75899+Q9UBS5); test: GTPγ35S activation assay
Experimental: as §1
Filters were rinsed 6 times with cold 10 mM phosphate buffer pH 7.4, and dried overnight before addition of 30 μl Microscint O, and measurement in Topcount (Packard, 1 min./well).

[3] = molecular target: GABAB receptor expressed by the hGABABR1a/GABABR2 CHO cell line (Homo sapiens, UniProt O75899+Q9UBS5); conditions: 10 μM in saturation assay, FIGS. 4a, b
Sequence of GABAB receptor expressed by the hGABABR1a/GABABR2 CHO cell line (Q9UBS5 20-961): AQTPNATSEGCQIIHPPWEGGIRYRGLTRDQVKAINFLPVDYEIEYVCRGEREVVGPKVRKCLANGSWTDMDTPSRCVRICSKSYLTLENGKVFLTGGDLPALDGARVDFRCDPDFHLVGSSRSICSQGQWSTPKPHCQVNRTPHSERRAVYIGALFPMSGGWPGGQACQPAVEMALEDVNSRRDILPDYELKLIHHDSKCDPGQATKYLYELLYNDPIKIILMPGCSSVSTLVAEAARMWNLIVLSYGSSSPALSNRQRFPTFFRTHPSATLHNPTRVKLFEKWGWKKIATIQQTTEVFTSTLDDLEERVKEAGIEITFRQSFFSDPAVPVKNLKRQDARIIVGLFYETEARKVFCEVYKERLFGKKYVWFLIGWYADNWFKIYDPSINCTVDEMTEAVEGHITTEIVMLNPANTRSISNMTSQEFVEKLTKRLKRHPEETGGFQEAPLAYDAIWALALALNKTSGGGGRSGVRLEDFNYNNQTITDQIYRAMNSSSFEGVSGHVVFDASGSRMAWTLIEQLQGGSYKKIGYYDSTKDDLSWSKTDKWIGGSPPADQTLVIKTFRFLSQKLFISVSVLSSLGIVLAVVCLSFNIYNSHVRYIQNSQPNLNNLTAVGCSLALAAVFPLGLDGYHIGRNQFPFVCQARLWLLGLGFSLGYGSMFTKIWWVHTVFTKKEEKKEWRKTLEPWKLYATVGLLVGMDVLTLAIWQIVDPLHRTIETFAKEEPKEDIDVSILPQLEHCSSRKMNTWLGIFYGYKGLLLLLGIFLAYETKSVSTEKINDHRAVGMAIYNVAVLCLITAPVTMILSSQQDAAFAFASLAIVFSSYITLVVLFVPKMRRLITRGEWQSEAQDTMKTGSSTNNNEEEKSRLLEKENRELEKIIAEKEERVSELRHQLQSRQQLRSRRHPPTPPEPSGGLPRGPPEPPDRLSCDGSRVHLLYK
Sequence of GABAB receptor expressed by the hGABABR1a/GABABR2 CHO cell line (O75899 42-941): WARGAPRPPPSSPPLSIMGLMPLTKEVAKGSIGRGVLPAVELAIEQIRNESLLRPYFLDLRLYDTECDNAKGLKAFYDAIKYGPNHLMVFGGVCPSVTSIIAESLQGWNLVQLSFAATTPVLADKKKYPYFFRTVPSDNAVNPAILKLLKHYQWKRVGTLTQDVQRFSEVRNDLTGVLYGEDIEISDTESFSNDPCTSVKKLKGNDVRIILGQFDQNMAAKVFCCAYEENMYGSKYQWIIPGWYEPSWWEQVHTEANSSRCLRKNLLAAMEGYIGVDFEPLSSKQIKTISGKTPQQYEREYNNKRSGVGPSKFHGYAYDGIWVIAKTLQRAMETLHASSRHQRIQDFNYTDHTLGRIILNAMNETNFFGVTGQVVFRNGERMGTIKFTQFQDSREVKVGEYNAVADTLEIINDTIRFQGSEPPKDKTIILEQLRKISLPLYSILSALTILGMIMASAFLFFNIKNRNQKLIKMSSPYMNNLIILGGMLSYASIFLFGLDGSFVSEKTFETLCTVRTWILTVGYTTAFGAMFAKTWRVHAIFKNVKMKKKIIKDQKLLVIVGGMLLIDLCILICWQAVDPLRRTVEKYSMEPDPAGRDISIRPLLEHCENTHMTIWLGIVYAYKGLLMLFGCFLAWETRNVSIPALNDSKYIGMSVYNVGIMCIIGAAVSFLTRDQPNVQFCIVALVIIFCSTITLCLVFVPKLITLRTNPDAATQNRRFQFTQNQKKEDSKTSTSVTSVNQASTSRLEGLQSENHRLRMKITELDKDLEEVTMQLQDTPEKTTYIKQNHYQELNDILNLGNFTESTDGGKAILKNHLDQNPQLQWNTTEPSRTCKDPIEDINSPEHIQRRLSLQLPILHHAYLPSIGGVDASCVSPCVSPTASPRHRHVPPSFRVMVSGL
Experimental: Agonist centrifugation Binding AssayIn an alternative binding assay the non-bound ligand was separated from the membranes by centrifugation instead of filtration. The assay was performed according to the earlier described filter binding assay, with the difference that the non-bound ligand was separated from the membranes by centrifugation in a microcentrifuge at 12500 rpm for 10 minutes. The supernatant was discarded, the pellet was rinsed with washing buffer and dissolved in 200 μl water.

[4] = molecular target: T1, native GABAB receptor, Rat (Rattus norvegicus, UniProt Q9Z0U4); conditions: published results; cited from earlier work
T1 construct: host or cells: rat tissue preparations
T1 sequence (Q9Z0U4 20-960): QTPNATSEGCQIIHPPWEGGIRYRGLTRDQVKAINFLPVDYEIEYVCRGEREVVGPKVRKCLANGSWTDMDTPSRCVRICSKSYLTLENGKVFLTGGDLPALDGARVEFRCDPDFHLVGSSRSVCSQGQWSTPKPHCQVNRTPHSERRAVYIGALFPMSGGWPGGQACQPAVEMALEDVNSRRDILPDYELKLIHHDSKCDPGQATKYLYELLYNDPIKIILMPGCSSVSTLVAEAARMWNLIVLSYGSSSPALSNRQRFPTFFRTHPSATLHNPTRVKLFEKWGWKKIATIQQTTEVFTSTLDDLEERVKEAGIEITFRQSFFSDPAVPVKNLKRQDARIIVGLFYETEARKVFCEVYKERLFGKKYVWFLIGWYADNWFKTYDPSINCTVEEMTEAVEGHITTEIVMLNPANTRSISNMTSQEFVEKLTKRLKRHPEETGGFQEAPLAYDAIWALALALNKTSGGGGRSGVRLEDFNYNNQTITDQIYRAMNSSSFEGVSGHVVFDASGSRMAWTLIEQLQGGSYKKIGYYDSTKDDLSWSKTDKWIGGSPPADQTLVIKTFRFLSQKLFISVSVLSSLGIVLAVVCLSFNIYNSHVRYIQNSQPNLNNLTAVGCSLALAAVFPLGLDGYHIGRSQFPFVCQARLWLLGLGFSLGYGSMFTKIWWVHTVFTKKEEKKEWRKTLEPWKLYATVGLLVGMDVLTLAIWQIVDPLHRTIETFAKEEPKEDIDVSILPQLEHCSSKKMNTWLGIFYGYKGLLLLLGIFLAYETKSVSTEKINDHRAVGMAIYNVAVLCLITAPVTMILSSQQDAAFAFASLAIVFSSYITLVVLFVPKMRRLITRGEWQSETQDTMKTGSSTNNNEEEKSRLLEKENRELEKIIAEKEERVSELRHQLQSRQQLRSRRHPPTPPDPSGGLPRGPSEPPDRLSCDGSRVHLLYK
T1 sequence (O88871 41-940 partner): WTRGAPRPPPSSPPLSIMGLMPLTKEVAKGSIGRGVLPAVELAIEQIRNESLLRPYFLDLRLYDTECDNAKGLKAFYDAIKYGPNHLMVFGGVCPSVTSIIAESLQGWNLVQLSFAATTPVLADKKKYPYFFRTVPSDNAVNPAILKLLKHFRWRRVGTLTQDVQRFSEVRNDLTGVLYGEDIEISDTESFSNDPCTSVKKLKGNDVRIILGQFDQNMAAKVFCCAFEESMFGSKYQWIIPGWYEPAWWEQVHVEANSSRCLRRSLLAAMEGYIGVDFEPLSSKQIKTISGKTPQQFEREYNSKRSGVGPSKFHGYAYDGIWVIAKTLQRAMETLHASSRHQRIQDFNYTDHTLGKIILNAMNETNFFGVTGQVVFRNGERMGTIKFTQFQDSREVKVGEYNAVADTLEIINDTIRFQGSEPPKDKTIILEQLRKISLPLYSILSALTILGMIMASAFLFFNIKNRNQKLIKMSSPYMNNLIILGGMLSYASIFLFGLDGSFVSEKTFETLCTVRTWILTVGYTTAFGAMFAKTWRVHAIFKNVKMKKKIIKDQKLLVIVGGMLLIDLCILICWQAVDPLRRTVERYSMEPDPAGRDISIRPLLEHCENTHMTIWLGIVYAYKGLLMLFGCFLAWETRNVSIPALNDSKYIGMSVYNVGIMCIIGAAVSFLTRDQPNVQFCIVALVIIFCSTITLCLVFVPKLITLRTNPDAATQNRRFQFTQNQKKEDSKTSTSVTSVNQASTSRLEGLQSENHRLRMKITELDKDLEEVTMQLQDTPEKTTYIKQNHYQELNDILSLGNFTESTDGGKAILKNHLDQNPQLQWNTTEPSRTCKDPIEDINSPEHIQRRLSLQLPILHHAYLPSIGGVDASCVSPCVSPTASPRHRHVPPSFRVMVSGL

[5] = molecular target: native GABAB receptor, Pig (Sus scrofa, UniProt A0A480I1B8); conditions: Facklam & Bowery, 1993; cited from earlier work
Sequence of native GABAB receptor, Pig (A0A480I1B8 1-960): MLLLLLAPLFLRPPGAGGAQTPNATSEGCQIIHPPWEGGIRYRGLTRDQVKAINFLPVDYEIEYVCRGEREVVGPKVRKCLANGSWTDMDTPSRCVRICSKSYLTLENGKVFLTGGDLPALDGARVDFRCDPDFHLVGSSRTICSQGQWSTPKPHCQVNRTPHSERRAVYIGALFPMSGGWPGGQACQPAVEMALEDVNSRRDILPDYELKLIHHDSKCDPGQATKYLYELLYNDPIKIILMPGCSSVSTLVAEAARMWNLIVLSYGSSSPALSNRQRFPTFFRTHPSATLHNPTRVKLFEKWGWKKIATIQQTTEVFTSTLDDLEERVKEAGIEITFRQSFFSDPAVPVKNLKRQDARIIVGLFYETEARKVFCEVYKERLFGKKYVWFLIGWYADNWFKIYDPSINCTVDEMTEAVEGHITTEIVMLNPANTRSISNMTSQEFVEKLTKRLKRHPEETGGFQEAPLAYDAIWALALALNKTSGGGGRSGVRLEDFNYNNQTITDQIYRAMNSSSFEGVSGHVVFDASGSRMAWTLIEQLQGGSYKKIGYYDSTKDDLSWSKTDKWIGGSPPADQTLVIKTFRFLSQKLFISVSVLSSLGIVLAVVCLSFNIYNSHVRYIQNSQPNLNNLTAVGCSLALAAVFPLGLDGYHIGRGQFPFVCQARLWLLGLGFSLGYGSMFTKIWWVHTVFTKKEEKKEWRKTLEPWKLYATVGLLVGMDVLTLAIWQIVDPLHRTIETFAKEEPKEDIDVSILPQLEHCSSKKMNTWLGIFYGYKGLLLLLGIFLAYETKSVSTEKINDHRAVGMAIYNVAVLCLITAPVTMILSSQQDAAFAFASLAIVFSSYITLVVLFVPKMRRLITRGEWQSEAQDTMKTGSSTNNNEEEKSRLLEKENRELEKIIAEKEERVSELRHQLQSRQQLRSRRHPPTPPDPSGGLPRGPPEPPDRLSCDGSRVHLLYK

Sequence of hGABABR1a/R2 heterodimeric GABAB receptor (CHO membranes) (Q9UBS5 20-961): as the sequence (Q9UBS5 20-961) above
Sequence of hGABABR1a/R2 heterodimeric GABAB receptor (CHO membranes) (O75899 42-941): as the sequence (O75899 42-941) above
Sequence of hGABABR1a/GABABR2 receptor (CHO membranes) (Q9UBS5 20-961): as the sequence (Q9UBS5 20-961) above
Sequence of hGABABR1a/GABABR2 receptor (CHO membranes) (O75899 42-941): as the sequence (O75899 42-941) above

SMILES | IC50 [1] [nM] | SIGNAL TRANSDUCTION GTPγS binding % Effect at 10 μM [2] [%] | further results
CC1(C)CC2=Nc3c(N)ncnc3SC2=C(NCCCC(=O)O)C1 | 151 | 40.95 | 
CC1(C)CC2=Nc3ccccc3SC2=C(NCCCC(=O)O)C1 | 372 | 24.44 | 
CC1(C)CC2=Nc3c(Cl)ncnc3SC2=C(NCCCC(=O)O)C1 | 135 | 61.93 | 
CC(C)(CO)Cc1cc(C(C)(C)C)c(O)c(C(C)(C)C)c1 [CGP7930, reference compound] |  |  | effect on GABA-stimulated GTPγ35S binding ([2]; positive modulator, FIG. 1): potentiated
C[C@H](NC[C@H](O)CP(=O)(O)CC1CCCCC1)c1ccc(Cl)c(Cl)c1 [CGP54626, reference compound] |  |  | effect on 3H-GABA binding to both the high and the low affinity site [3]: blocked
C[C@H](NC[C@H](O)CP(=O)(O)CC1CCCCC1)c1ccc(Cl)c(Cl)c1 [^3H-CGP54626] |  |  | Kd [4]: 1.5 nM; Kd [5]: 1.35 nM
NCCCC(=O)O [^3H-GABA] |  |  | Kd [5]: 26 nM
CN(C)c1ncnc2c1N=C1CC(C)(C)CC(NCCCC(=O)O)=C1S2 [compound 1] |  |  | effect on 3H-GABA binding to both the high and the low affinity site [3]: blocked
CN(C)c1ncnc2c1N=C1CC(C)(C)CC(NCCCC(=O)O)=C1S2 [drawing 15] | 64.9 | 45.7275 | 
